Data reported in patent publication US20040237130A1, “Embryogenic culture initiation of douglas-fir by maltose” (Weyerhaeuser Company, priority 2003, published 2004).

Legend:
[1] = system: Douglas-fir embryonal suspensor masses; test: Establishment of embryonal suspensor masses on BM2 maintenance medium; type: cell-based; settings: for Initiation (#) (Establishment Frequencies) / Initiation (%) (Establishment Frequencies) / Initiation (%) (Establishment Frequencies); proportion of established ESMs: sugar 30000 mg/L in solid BM2 maintenance medium, 12-15 subcultures
Procedure: Maintenance: After 5-6 weeks, ESMs from Group A were subcultured onto a solid BM2 maintenance medium (Table 2), and ESMs from Group B were subcultured unto a BM2 maintenance medium in which the maltose was replaced with sucrose (30000 mg/L). The maintenance medium differs from the initiation medium in that the growth hormones (both auxins and cytokinins) are reduced by at least a full order of magnitude. Osmolality of this medium was typically raised from that of the initiation medium to about 180 mM/kg or higher (typically within the range of about 180-400 mM/kg) by increasing the concentration of myo-inositol to 0.5% w/v. The temperature and photoperiod were again 22°-25 C. with 24 hours in the dark. ESMs were subcultured every 12 days onto fresh maintenance medium. The number of ESMs established from explants for each group after a total of 12-15 subcultures on maintenance is shown in Table 4. An ESM was considered to be established if it weighed between 250 mg and 500 mg (fresh weight) or if measured 1-2 cms in diameter, after several subcultures. The proportion of established ESMs obtained was 18% for explants in Group A and 11% for explants in Group B. The frequencies of established ESMs improved for each of the 4 crosses tested when explants were cultured on maintenance medium containing maltose (Group A). Overall, the number of established ESMs increased by 51% for explants cultured on maintenance medium containing maltose, compared to explants cultured on maintenance medium containing sucrose.

Douglas-fir explants = test: Initiation of embryonal suspensor masses (ESM) from Douglas-fir explants on BM1 initiation medium; type: cell-based; settings: for Initiation (#) / Initiation (%): sugar 15000 mg/L in semi-solid BM1 initiation medium, 5-6 weeks, dark
Procedure: Cones were collected from four mother tree crosses (full-sib families) at a time when the embryos were in the pre-dome and dome stage of development. Cones were transferred on blue ice and stored in plastic bags in a cold room at 0-4° C. until needed for dissections. Seeds were removed from cones and dissected on the same day. After the seeds were removed, they were placed into a beaker containing pre-sterilized water. Seeds were divided into aliquots of 60-80 seeds. Each aliquot was placed into a separate pre-sterilized tea strainer before undergoing the following procedure. First, seeds were agitated in 10% Liqui-nox (+2 droppers full Tween-20 per liter) for 10 minutes. After rinsing the seeds in deionized water (18 megaohms) for 30 minutes, the tea strainers were exposed to 20% (v/v) H2O2 for 10 minutes in a fume hood on a rotary shaker (175 rpm). The H2O2 was diluted just before use with sterile, deionized water. Following application of the H2O2, each strainer was placed into a separate beaker of sterile deionized water, covered with foil, and moved into the laminar flow hood. All subsequent steps were carried out in the laminar flow hood. Each tea strainer was rinsed by agitating 4-8 times in each of 5 separate portions of sterile deionized water. The contents of each tea strainer were then dumped into a large petri dish containing a sterile filter paper and a few millimeters of sterile water (to help keep seeds from drying). Seeds were placed into 60×15 mm sterile petri plates containing 0.2 ml sterile deionized water each. Those seeds not dissected after sterilization were thrown out at the end of the day. Dissections were done in clean laminar flow hoods. Clean gloves were worn throughout the preparatory steps and dissection. Sterile forceps and scalpels were used to carefully split the seed, remove the female gametophyte and nucellus, and to split the female gametophyte. The embryo suspensor was pulled out, but kept attached to (or touching) the female gametophyte. Embryo and gametophyte were placed unto initiation medium BM1 so that the embryo was visible through the petri dish lid. Initiation: Half of the embryos and gametophytes (Group 1) from each cross were placed on a semi-solid BM1 initiation medium (Table 2), the other half (Group 2) were placed on semi-solid BM1 initiation medium in which the maltose was replaced with sucrose (15000 mg/L). The explants were held in an environment at 22°-25 C with a 24 hour dark photoperiod for a time of 5-6 weeks. The length of time depends on the particular genotype being cultured. Embryonal suspensor masses (ESM) (White, translucent, and mucilaginous) were observed beginning 2-3 weeks after inoculation. […] Initiation is defined as growth of an embryonal suspensor mass from an explant. Overall, the percentage of ESMs initiated from explants was 27% for Group A and 18% for Group B. Initiation improved for each of the 4 crosses tested when explants were cultured on initiation medium containing maltose (Group A). Overall, the number of explants initiated increased by 51% for explants cultured on initiation medium containing maltose, compared to explants cultured on initiation medium containing sucrose.

## OC[C@H]1O[C@H](O[C@H]2[C@H](O)[C@@H](O)C(O)O[C@@H]2CO)[C@H](O)[C@@H](O)[C@@H]1O (mixture of isomers) [Group A, maltose]
[1]; Cross 1
  Initiation (#) (Establishment Frequencies): 36 #
  Initiation (%) (Establishment Frequencies): 26%
[1]; Cross 2
  Initiation (#) (Establishment Frequencies): 11 #
  Initiation (%) (Establishment Frequencies): 10%
[1]; Cross 3
  Initiation (#) (Establishment Frequencies): 20 #
  Initiation (%) (Establishment Frequencies): 18%
[1]; Cross 4
  Initiation (#) (Establishment Frequencies): 17 #
  Initiation (%) (Establishment Frequencies): 15%
[1]; Total of 4 crosses
  Initiation (#) (Establishment Frequencies): 84 #
  Initiation (%) (Establishment Frequencies); proportion of established ESMs: 18%
[1]; each of 4 crosses
  frequencies of established ESMs for each of the 4 crosses tested, compared with sucrose medium: improved
[1]; overall, 4 crosses
  increase in number of established ESMs compared to maintenance medium containing sucrose: 51%
Douglas-fir explants; Cross 1
  Initiation (#): 63 #
  Initiation (%): 46%
Douglas-fir explants; Cross 2
  Initiation (#): 30 #
  Initiation (%): 28%
Douglas-fir explants; Cross 3
  Initiation (#): 21 #
  Initiation (%): 19%
Douglas-fir explants; Cross 4
  Initiation (#): 13 #
  Initiation (%): 12%
Douglas-fir explants; Total of 4 crosses (overall)
  Initiation (%): 27%
Douglas-fir explants; Total of 4 crosses
  Initiation (#): 127 #
Douglas-fir explants; each of 4 crosses
  Initiation for each of the 4 crosses tested, compared with sucrose medium: improved
Douglas-fir explants; overall, 4 crosses
  increase in number of explants initiated compared to initiation medium containing sucrose: 51%

## OC[C@H]1O[C@@](CO)(O[C@H]2O[C@H](CO)[C@@H](O)[C@H](O)[C@H]2O)[C@@H](O)[C@@H]1O [Group B, sucrose, reference compound]
[1]; Cross 1
  Initiation (#) (Establishment Frequencies): 20 #
  Initiation (%) (Establishment Frequencies): 14%
[1]; Cross 2
  Initiation (#) (Establishment Frequencies): 6 #
  Initiation (%) (Establishment Frequencies): 6%
[1]; Cross 3
  Initiation (#) (Establishment Frequencies): 12 #
  Initiation (%) (Establishment Frequencies): 11%
[1]; Cross 4
  Initiation (#) (Establishment Frequencies): 13 #
  Initiation (%) (Establishment Frequencies): 12%
[1]; Total of 4 crosses
  Initiation (#) (Establishment Frequencies): 51 #
  Initiation (%) (Establishment Frequencies); proportion of established ESMs: 11%
Douglas-fir explants; Cross 1
  Initiation (#): 42 #
  Initiation (%): 30%
Douglas-fir explants; Cross 2
  Initiation (#): 20 #
  Initiation (%): 19%
Douglas-fir explants; Cross 3
  Initiation (#): 14 #
  Initiation (%): 13%
Douglas-fir explants; Cross 4
  Initiation (#): 8 #
  Initiation (%): 7%
Douglas-fir explants; Total of 4 crosses (overall)
  Initiation (%): 18%
Douglas-fir explants; Total of 4 crosses
  Initiation (#): 84 #
